# From BindingDB's records for doi:10.7270/Q2Z31X1B (Nmmlsc, 2007)
# Molecular target: T1, fMet-Leu-Phe receptor (Homo sapiens, UniProt P21462)
# T1 sequence (P21462 whole entry): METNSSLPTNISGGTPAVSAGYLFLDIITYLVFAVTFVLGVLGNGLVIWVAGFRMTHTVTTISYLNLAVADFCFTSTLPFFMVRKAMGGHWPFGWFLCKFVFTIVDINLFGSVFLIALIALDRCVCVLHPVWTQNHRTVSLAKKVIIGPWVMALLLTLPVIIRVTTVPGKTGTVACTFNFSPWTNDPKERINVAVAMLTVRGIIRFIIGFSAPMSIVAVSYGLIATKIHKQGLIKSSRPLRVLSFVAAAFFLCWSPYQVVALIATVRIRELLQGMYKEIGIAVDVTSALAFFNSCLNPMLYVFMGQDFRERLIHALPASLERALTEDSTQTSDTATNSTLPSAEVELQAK
# Assay: FPR1 fluorescent ligand binding inhibitors, dose response, cell-based, flow cytometry, Ki from IC50 (AID 724)
row,Ki,Structure (SMILES)
1,> 44.3 µM,"CCCCCCOc1cccc(N2C(=O)C(=O)C(C(=O)c3ccccc3)C2c2cccc(F)c2)c1 (centres undefined) [(4Z)-5-(3-fluorophenyl)-1-(3-hexoxyphenyl)-4-[hydroxy(phenyl)methylene]pyrrolidine-2,3-quinone]"
2,> 44.3 µM,"Cc1ccc(N2C(=O)C(=O)C(C(=O)c3ccccc3)C2c2cccc(F)c2)cc1Br (centres undefined) [(4Z)-1-(3-bromanyl-4-methyl-phenyl)-5-(3-fluorophenyl)-4-[oxidanyl(phenyl)methylidene]pyrrolidine-2,3-dione]"
3,16.8 µM,"COc1ccc(OC)c(C2C(C(=O)c3ccccc3)C(=O)C(=O)N2c2ccc(C)c(Cl)c2)c1 (centres undefined) [(4E)-1-(3-chloranyl-4-methyl-phenyl)-5-(2,5-dimethoxyphenyl)-4-[oxidanyl(phenyl)methylidene]pyrrolidine-2,3-dione]"
4,6 µM,"COc1ccc(OC)c(C2C(C(=O)c3ccccc3)C(=O)C(=O)N2c2cccnc2)c1 (centres undefined) [(4E)-5-(2,5-dimethoxyphenyl)-4-[hydroxy(phenyl)methylene]-1-(3-pyridyl)pyrrolidine-2,3-quinone]"
5,11.2 µM,CC(=O)C1C(=O)C(=O)N(CCc2c(C)[nH]c3ccccc23)C1c1cccc(F)c1 (centres undefined)
6,31.1 µM,"COc1ccc(C2C(C(=O)c3ccccc3)C(=O)C(=O)N2c2cccc(Cl)c2)c(OC)c1 (centres undefined) [(4E)-1-(3-chlorophenyl)-5-(2,4-dimethoxyphenyl)-4-[hydroxy(phenyl)methylene]pyrrolidine-2,3-quinone]"
7,33.2 µM,"CC(C)c1ccc(C2C(C(=O)c3ccccc3)C(=O)C(=O)N2Cc2cccnc2)cc1 (centres undefined) [(4E)-4-[hydroxy(phenyl)methylene]-5-p-cumenyl-1-(3-pyridylmethyl)pyrrolidine-2,3-quinone]"
8,> 44.3 µM,"Cc1ccc(C(=O)C2C(=O)C(=O)N(Cc3cccnc3)C2c2ccc(Br)cc2)cc1 (centres undefined) [(4E)-5-(4-bromophenyl)-4-[(4-methylphenyl)-oxidanyl-methylidene]-1-(pyridin-3-ylmethyl)pyrrolidine-2,3-dione]"
9,6.9 µM,O=C1C(=O)N(CCc2ccccc2)C(c2ccc(Cl)cc2)C1C(=O)c1cccs1 (centres undefined) [2-(4-chlorophenyl)-4-hydroxy-1-(2-phenylethyl)-3-(thiophene-2-carbonyl)-2H-pyrrol-5-one]
10,33 µM,"COCCCN1C(=O)C(=O)C(C(=O)c2ccccc2)C1c1ccc(O)c(OC)c1 (centres undefined) [(4E)-5-(3-methoxy-4-oxidanyl-phenyl)-1-(3-methoxypropyl)-4-[oxidanyl(phenyl)methylidene]pyrrolidine-2,3-dione]"
11,> 44.3 µM,"O=C1C(=O)N(c2ccc(F)cc2)C(c2ccc(Br)cc2)C1C(=O)c1ccccc1 (centres undefined) [(4Z)-5-(4-bromophenyl)-1-(4-fluorophenyl)-4-[hydroxy(phenyl)methylene]pyrrolidine-2,3-quinone]"
12,20.3 µM,"COCCCN1C(=O)C(=O)C(C(=O)c2ccccc2)C1c1ccc(C(C)C)cc1 (centres undefined) [(4E)-1-(3-methoxypropyl)-4-[oxidanyl(phenyl)methylidene]-5-(4-propan-2-ylphenyl)pyrrolidine-2,3-dione]"

# The remaining lines, values behind:
row,Structure (SMILES),Ki
1,"COc1ccc(C2C(C(=O)c3ccccc3)C(=O)C(=O)N2CCCn2ccnc2)c(OC)c1 (centres undefined) [(4E)-5-(2,4-dimethoxyphenyl)-1-(3-imidazol-1-ylpropyl)-4-[oxidanyl(phenyl)methylidene]pyrrolidine-2,3-dione]",3.4 µM
2,COc1cc(C2C(C(=O)c3cc4ccccc4o3)C(=O)C(=O)N2CCN(C)C)ccc1O (centres undefined) [3-(1-benzofuran-2-carbonyl)-1-[2-(dimethylamino)ethyl]-4-hydroxy-2-(4-hydroxy-3-methoxyphenyl)-2H-pyrrol-5-one],> 44.3 µM
3,"COc1ccc(C2C(C(=O)c3ccco3)C(=O)C(=O)N2CCN2CCOCC2)c(OC)c1 (centres undefined) [5-(2,4-dimethoxyphenyl)-4-(furan-2-carbonyl)-3-hydroxy-1-(2-morpholinoethyl)-1H-pyrrol-2(5H)-one]",6.4 µM
4,"O=C1NC(c2ccc(Br)cc2)C(C(=O)c2ccc(Cl)cc2)C1=O (centres undefined) [(4E)-5-(4-bromophenyl)-4-[(4-chlorophenyl)-hydroxy-methylene]pyrrolidine-2,3-quinone]",> 44.3 µM
5,"O=C(O)CCCN1C(=O)C(=O)C(C(=O)c2ccccc2)C1/C=C/c1ccccc1 (centres undefined) [4-[(4E)-2,3-bis(oxidanylidene)-4-[oxidanyl(phenyl)methylidene]-5-[(E)-2-phenylethenyl]pyrrolidin-1-yl]butanoic acid]",> 44.3 µM
6,O=C1C(=O)N(CCCN2CCOCC2)C(c2cccnc2)C1C(=O)c1cc2ccccc2o1 (centres undefined) [3-(1-benzofuran-2-carbonyl)-4-hydroxy-1-(3-morpholin-4-ylpropyl)-2-pyridin-3-yl-2H-pyrrol-5-one],> 44.3 µM
7,"COc1ccc(C2C(C(=O)c3cccs3)C(=O)C(=O)N2CCN2CCOCC2)c(OC)c1 (centres undefined) [2-(2,4-dimethoxyphenyl)-1-(2-morpholin-4-ylethyl)-4-oxidanyl-3-thiophen-2-ylcarbonyl-2H-pyrrol-5-one]",2.9 µM
8,"O=C1C(=O)N(CN2CCOCC2)C(c2ccc(Br)cc2)C1C(=O)c1ccccc1 (centres undefined) [(4E)-5-(4-bromophenyl)-1-(morpholin-4-ylmethyl)-4-[oxidanyl(phenyl)methylidene]pyrrolidine-2,3-dione]",> 44.3 µM
9,"COc1ccc(C2C(C(=O)c3ccc(C)cc3)C(=O)C(=O)N2Cc2cccnc2)c(OC)c1 (centres undefined) [(4E)-5-(2,4-dimethoxyphenyl)-4-[(4-methylphenyl)-oxidanyl-methylidene]-1-(pyridin-3-ylmethyl)pyrrolidine-2,3-dione]",39.1 µM
10,"CCCCCCN1C(=O)C(=O)C(C(=O)c2ccccc2)C1c1ccc(O)c(OC)c1 (centres undefined) [(4Z)-1-hexyl-5-(3-methoxy-4-oxidanyl-phenyl)-4-[oxidanyl(phenyl)methylidene]pyrrolidine-2,3-dione]",4.7 µM
11,O=C1C(=O)N(CCCn2ccnc2)C(c2cccnc2)C1C(=O)c1cc2ccccc2o1 (centres undefined) [3-(1-benzofuran-2-carbonyl)-4-hydroxy-1-(3-imidazol-1-ylpropyl)-2-pyridin-3-yl-2H-pyrrol-5-one],> 44.3 µM
12,"COc1ccc(C(=O)C2C(=O)C(=O)NC2c2ccc(OC)cc2OC)cc1 (centres undefined) [(4Z)-5-(2,4-dimethoxyphenyl)-4-[(4-methoxyphenyl)-oxidanyl-methylidene]pyrrolidine-2,3-dione]",> 44.3 µM
13,"COc1ccc(C2C(C(=O)c3ccco3)C(=O)C(=O)N2CCCN2CCOCC2)cc1OC (centres undefined) [2-(3,4-dimethoxyphenyl)-3-(furan-2-carbonyl)-4-hydroxy-1-(3-morpholin-4-ylpropyl)-2H-pyrrol-5-one]",> 44.3 µM
14,O=C1C(=O)N(CCCn2ccnc2)C(c2cccnc2)C1C(=O)c1ccco1 (centres undefined) [3-(furan-2-carbonyl)-4-hydroxy-1-(3-imidazol-1-ylpropyl)-2-pyridin-3-yl-2H-pyrrol-5-one],> 44.3 µM
15,"COCCN1C(=O)C(=O)C(C(=O)c2ccccc2)C1c1cc(OC)ccc1OC (centres undefined) [(4E)-5-(2,5-dimethoxyphenyl)-1-(2-methoxyethyl)-4-[oxidanyl(phenyl)methylidene]pyrrolidine-2,3-dione]",1.8 µM
16,COc1ccc(C2C(C(=O)c3cccs3)C(=O)C(=O)N2CCCn2ccnc2)cc1 (centres undefined) [1-(3-imidazol-1-ylpropyl)-2-(4-methoxyphenyl)-4-oxidanyl-3-thiophen-2-ylcarbonyl-2H-pyrrol-5-one],4.7 µM
17,"COc1ccc(C2C(C(=O)c3cc4ccccc4o3)C(=O)C(=O)N2CCN(C)C)cc1OC (centres undefined) [3-(1-benzofuran-2-carbonyl)-2-(3,4-dimethoxyphenyl)-1-[2-(dimethylamino)ethyl]-4-hydroxy-2H-pyrrol-5-one]",> 44.3 µM
18,COc1ccc(C(=O)C2C(=O)C(=O)N(CCc3c[nH]c4ccccc34)C2c2ccc(C(C)C)cc2)cc1 (centres undefined),> 44.3 µM
19,"N#Cc1c(N=C(CC(=O)c2ccccc2)C(=O)O)sc2c1CCC2 [(Z)-2-[(3-cyano-5,6-dihydro-4H-cyclopenta[b]thiophen-2-yl)amino]-4-keto-4-phenyl-but-2-enoic acid]",> 44.3 µM
20,"Cc1ccc(C(=O)C2C(=O)C(=O)N(c3nnc(C)s3)C2c2ccc(C(C)C)cc2)cc1 (centres undefined) [(4E)-4-[(4-methylphenyl)-oxidanyl-methylidene]-1-(5-methyl-1,3,4-thiadiazol-2-yl)-5-(4-propan-2-ylphenyl)pyrrolidine-2,3-dione]",> 44.3 µM
21,COc1cc(C2C(C(C)=O)C(=O)C(=O)N2c2ccc(Br)cc2)ccc1O (centres undefined) [1-(4-bromophenyl)-3-ethanoyl-2-(3-methoxy-4-oxidanyl-phenyl)-4-oxidanyl-2H-pyrrol-5-one],> 44.3 µM
22,"COc1ccc(OC)c(C2C(C(=O)c3ccc(C)cc3)C(=O)C(=O)N2CCC(=O)O)c1 (centres undefined) [3-[(3E)-2-(2,5-dimethoxyphenyl)-3-[(4-methylphenyl)-oxidanyl-methylidene]-4,5-bis(oxidanylidene)pyrrolidin-1-yl]propanoic acid]",> 44.3 µM
